Results from patent US6492416B1, “4,5-diaryl-3(2H)-furanone derivatives as cyclooxygenase-2 inhibitors” (Pacific Corporation, priority 1999, dated 2002).
Converted amounts (≈) assume the structure as drawn.

How the values were obtained:
[1] = tested on: male SD rats; assay: Antiinflammatory potency by adjuvant arthritis (AA); format: in vivo; conditions: daily oral dose day 14 to day 22, rat
Protocol: Arthritis was induced in male SD rats weighing 180-200 g by subcutaneous injection of Mycobacterium butyricum mixed in 0.1 ml of incomplete Freund's adjuvanat into the base of the tail. The foot volumes were measured using a displacement plethysomometer 14 days after the injection of the adjuvant. Animals with paw volumes greater than the normal paw volumes (without the adjuvant treatment) by 0.37 ml were selected, and then randomized. A designated daily dose of a compound of this invention, which was suspended in 1% aqueous methylcellulose solution, was administered to the randomized rats with arthritis by oral gavage daily once beginning on day 14 after the injection of the adjuvant. The administration of the compound continued till day 22 after the injection of the adjuvant, and the paw volumes were measured on daily basis using a displacement plethysmometer.
% Inhibition of AA=(1−Δtreated/Δcontrol)×100
wherein Δtreated=[(paw volume at day 22)/(paw volume at day 14)−1] for a drug-administered rat, and Δcontrol=[(paw volume at day 22)/(paw volume at day 14)−1] for a rat without drug administration.
ED50 value was determined b a dose-response curve for each compound.

[2] = tested on: male Sprague-Dawley (SD) rats; assay: Carrageenan-induced foot edema in rats (CFE); format: in vivo; conditions: rat, paw volume 3 hours after Carrageenan
Protocol: An appropriate amount of a compound of this invention suspended in 1% methylcellulose (MC) solution was administered to male Sprague-Dawley (SD) rats weighing 150˜200 g by oral gavage. The volume of the administered vehicle for a compound of this invention was controlled to be smaller than 10 ml/kg body weight of the animal. One hour later, 0.1 ml of 1% Carrageenan saline solution was directly injected into the right paw of the rats to induce edema in the paw. The paw volumes at 0 hour and at 3 hours after the injection of Carrageenan were measured by using a displacement plethysmometer (Ugo Basile, Italy). The paw volumes were used to calculate % inhibition of CFE by an amount of a compound of this invention according to the following equation.
% Inhibition of CFE=(1−Δtreated/Δcontrol)×100
wherein Δtreated=[paw volume at three hours after the Carrageenan injection−paw volume right after Carrageenan injection] for a drug-administered rat, and Δcontrol=[paw volume at three hours after the Carrageenan injection−paw volume right after Carrageenan injection] for a rat without drug administration.
In order to determine the inhibitory activity of a compound of this invention at a dose, usually 5 to 8 animals were used both for drug-treated group and for control group.

[3] = target: T1, COX-2 (Mus musculus, UniProt Q05769); assay: Evaluation of COX-2 activity: PGE2 formation in aspirin-treated, LPS-stimulated mouse peritoneal macrophages; format: cell-based
T1 sequence (Q05769 18-604): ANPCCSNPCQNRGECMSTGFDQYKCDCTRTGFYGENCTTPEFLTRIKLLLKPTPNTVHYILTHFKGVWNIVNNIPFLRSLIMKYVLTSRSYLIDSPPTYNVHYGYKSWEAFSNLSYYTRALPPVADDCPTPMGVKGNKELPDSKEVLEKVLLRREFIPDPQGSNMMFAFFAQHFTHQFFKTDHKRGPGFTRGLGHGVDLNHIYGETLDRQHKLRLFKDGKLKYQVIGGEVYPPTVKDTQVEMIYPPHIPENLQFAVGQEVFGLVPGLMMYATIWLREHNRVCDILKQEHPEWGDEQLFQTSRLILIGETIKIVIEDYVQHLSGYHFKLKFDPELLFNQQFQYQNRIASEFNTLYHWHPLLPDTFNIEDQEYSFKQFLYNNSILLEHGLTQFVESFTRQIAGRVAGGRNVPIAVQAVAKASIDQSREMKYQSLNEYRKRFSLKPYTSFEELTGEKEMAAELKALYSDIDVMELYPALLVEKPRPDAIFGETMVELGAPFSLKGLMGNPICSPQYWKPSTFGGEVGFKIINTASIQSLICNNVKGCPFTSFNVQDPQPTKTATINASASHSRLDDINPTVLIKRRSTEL
Summary of the method: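 C57BL/6 peritoneal macrophages treated with 500 μM aspirin to block COX-1, adhered, then stimulated with 10 μg/ml LPS for 16 h at 37 °C to induce COX-2.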

[4] = target: T2, COX-1 (Mus musculus, UniProt P22437); assay: Evaluation of COX-1 activity: PGE2 formation in mouse peritoneal macrophages without aspirin and LPS treatment; format: cell-based
T2 sequence (P22437 27-602): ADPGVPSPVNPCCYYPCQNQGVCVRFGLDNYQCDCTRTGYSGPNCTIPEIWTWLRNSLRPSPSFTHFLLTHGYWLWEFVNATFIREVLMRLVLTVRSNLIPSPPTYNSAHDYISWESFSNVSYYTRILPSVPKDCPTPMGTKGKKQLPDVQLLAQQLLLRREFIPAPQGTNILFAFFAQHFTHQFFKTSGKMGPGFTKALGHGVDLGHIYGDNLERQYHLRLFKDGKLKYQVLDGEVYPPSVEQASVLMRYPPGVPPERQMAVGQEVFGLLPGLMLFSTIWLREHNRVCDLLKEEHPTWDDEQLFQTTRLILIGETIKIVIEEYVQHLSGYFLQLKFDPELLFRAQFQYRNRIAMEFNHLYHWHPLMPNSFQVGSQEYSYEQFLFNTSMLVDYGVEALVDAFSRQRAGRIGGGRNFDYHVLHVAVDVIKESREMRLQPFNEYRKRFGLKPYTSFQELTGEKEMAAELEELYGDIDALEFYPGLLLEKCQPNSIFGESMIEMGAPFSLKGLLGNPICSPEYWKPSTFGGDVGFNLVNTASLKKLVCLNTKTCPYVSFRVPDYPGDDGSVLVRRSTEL
Summary of the method: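 Peritoneal macrophages from C57BL/6 mice, without aspirin or LPS treatment, were plated at 1×10^6 cells/ml and fixed 2 h at 37 °C. Cells were preincubated 10 min, then given 10 μM arachidonic acid plus compound for 10 min; PGE2 was measured by RIA or EIA. IC50 came from 4–5 concentrations.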

[5] = tested on: ICR mice; assay: Acetic acid-induced writhing test; format: in vivo, mouse; conditions: oral gavage
Protocol: ICR mice weighing 18˜22 g were maintained in a controlled lighting environment (12 hours on/12 hours off) and fasted overnight prior analgesic testing. Mice were administered with a compound of this invention dissolved in 10:10:80 ethanol/Tween 80/saline or vehicle only by oral gavage. The administered vehicle volume was controlled to be 10 ml/kg body weight. One hour later, the animals were treated with 0.2 ml of 1.2% acetic acid by peritoneal injection. 6 minutes later, the number of abdominal constrictions was counted for a 6 minutes period. The antinociceptive activity was expressed as the reduction in the number of abdominal constrictions, compared with that of the placebo group [J. Med. Chem. 39, 4942 (1996)]. ED50 of the mouse writhing test denotes a dose level at which the number of abdominal constrictions is half that of the placebo group. Ten animals per group were used for this study.

[6] = tested on: male SD rats; assay: Carrageenan-induced thermal hyperalgesia assay; format: in vivo, rat; conditions: 3 hours
Protocol: Male SD rats weighing 170˜220 g were fasted but with free access to water for at leat 16 hours prior to testing. The rats were administered with a compound of this invention suspended in 20 ml 0.5% methylcellulose/0.025% Tween-20, or with vehicle only. Then the rats were given […] of 1% carrageenan in saline or […] saline only into the plantar surface of the left hindpaw by injection. Three hours later, the nociceptive responses to thermal stimuli were assessed as follows: Rats, which were placed in a transparent plastic chamber with a glass floor, were allowed to acclimate to their environment for 10 minutes prior to the testing. The withdrawal latency period in seconds was determined for the control and the compound treated group, and a percent inhibition in the withdrawal latency was calculated to estimate the analgesic effect of the compound [Pain 32, 77 (1988)]. In this study 6 animals were used for each group.

Row | SMILES | melting point [°C] | Adjuvant Arthritis ED50 [1] [mg/kg body weight] | % Inhibition (CFE) ([2]; oral dose 3 mg/kg body weight) [%] | IC50, μg/ml COX-2 [3] [µg/mL] | IC50, μg/ml COX-1 [4] [µg/mL] | ED50 (mouse writhing) [5] [mg/kg body weight] | % Inhibition (CFE) ([2]; oral dose 1 mg/kg body weight) [%] | % Inhibition at 1.0 mg/kg body weight (rat hyperalgesia) [6] [%]
1 | CC1(C)OC(c2ccc(S(C)(=O)=O)cc2)=C(c2cccc(C(F)(F)F)c2)C1=O [Example 14] | 115 to 116 | 0.06 | 32 |  |  |  |  | 
2 | CC1(C)OC(c2ccc(S(C)(=O)=O)c(F)c2)=C(c2ccc(F)cc2)C1=O [Example 276] | 160 to 161 |  | 26 | 0.05 (≈ 0.132 µM) | 10 (≈ 26.4 µM) |  |  | 
3 | CC1(C)OC(c2ccc(S(C)(=O)=O)c(F)c2)=C(c2cccc(Cl)c2)C1=O [Example 278] | 108 to 109 |  | 27 | 0.05 (≈ 0.127 µM) | 30 (≈ 76 µM) |  |  | 
4 | CC1(C)OC(c2ccc(S(C)(=O)=O)c(F)c2)=C(c2ccc(F)c(F)c2)C1=O [Example 284] | 158 to 159 |  | 33 | 0.03 (≈ 0.0757 µM) | 10 (≈ 25.2 µM) |  |  | 
5 | CC1(C)OC(c2ccc(S(N)(=O)=O)c(F)c2)=C(c2cccc(F)c2)C1=O [Example 302] | 178 to 179 |  | 27 | 0.03 (≈ 0.0791 µM) | 5 (≈ 13.2 µM) |  |  | 
6 | CC1(C)OC(c2ccc(S(N)(=O)=O)c(F)c2)=C(c2ccc(F)cc2)C1=O [Example 303] | 190 to 192 |  | 30 | 0.03 (≈ 0.0791 µM) | 3 (≈ 7.91 µM) |  |  | 
7 | CC1(C)OC(c2ccc(S(N)(=O)=O)c(F)c2)=C(c2ccc(F)c(F)c2)C1=O [Example 311] | 199 to 200 |  | 30 | 0.03 (≈ 0.0755 µM) | 3 (≈ 7.55 µM) |  |  | 
8 | CC1(C)OC(c2ccc(S(N)(=O)=O)cc2F)=C(c2cccc(F)c2)C1=O [Example 333] | 168 to 170 |  | 25 | 0.003 (≈ 0.00791 µM) | 10 (≈ 26.4 µM) |  |  | 
9 | CC1(C)OC(c2ccc(S(N)(=O)=O)cc2F)=C(c2cc(F)cc(F)c2)C1=O [Example 335] | 185 to 187 |  | 32 | 0.003 (≈ 0.00755 µM) | 3 (≈ 7.55 µM) |  |  | 
10 | CC1(C)OC(c2ccc(S(C)(=O)=O)c(Br)c2)=C(c2cccc(F)c2)C1=O [Example 343] | 133 to 134 |  | 25 | 0.03 (≈ 0.0683 µM) | 50 (≈ 114 µM) |  |  | 
11 | CC1(C)OC(c2ccc(S(C)(=O)=O)c(Cl)c2)=C(c2cccc(F)c2)C1=O [Example 359] | 163 to 164 |  | 28 | 0.02 (≈ 0.0507 µM) | 200 (≈ 507 µM) |  |  | 
12 | CC1(C)OC(c2ccc(S(C)(=O)=O)c(Cl)c2)=C(c2ccc(F)c(F)c2)C1=O [Example 361] | 150 to 151 |  | 41 | 0.009 (≈ 0.0218 µM) | 4 (≈ 9.69 µM) |  |  | 
13 | CC1(C)OC(c2ccc(S(N)(=O)=O)c(Cl)c2)=C(c2cccc(F)c2)C1=O [Example 369] | 149 to 150 |  | 28 | 0.02 (≈ 0.0505 µM) | 50 (≈ 126 µM) |  |  | 
14 | COc1ccc2c(c1)c(CC(=O)O)c(C)n2C(=O)c1ccc(Cl)cc1 [indomethacin, reference compound] |  |  |  |  |  | 7.4 | 28 | 45
